SMILES strings stand for the structures.

By IC50 is commonly meant the concentration that inhibits the measured activity by half.

A short description of the test: Inhibition of P2Y12 in human platelet rich plasma assessed as reduction in ADP-induced platelet aggregation pre-incubated before ADP addition and measured after 10 mins by Bruker spectrophotometry.
Turning to `CCCn1nc2cccc([N+](=O)[O-])c2n1`, the IC50 stood at 1.32 mM. Regarding `O=[N+]([O-])c1cccc2c1nnn2Cc1ccccc1`, the half-inhibitory concentration (IC50) amounted to 0.81 mM. The figure for `Cn1nnc2c([N+](=O)[O-])cccc21` is 1.84 mM. Regarding `Cn1nc2cccc([N+](=O)[O-])c2n1`, the IC50 came out at 1.96 mM. Turning to `Cn1nnc2cccc([N+](=O)[O-])c21`, the IC50 came out at 1.8 mM. The figure for `CCn1nc2cccc([N+](=O)[O-])c2n1` is 1.62 mM. The figure for `CCCn1nnc2c([N+](=O)[O-])cccc21` is 1.3 mM; for `CCCCn1nnc2c([N+](=O)[O-])cccc21` it is 1.05 mM; for `CCCCCn1nnc2c([N+](=O)[O-])cccc21` it is 1.07 mM. The figure for `CCCCCn1nc2cccc([N+](=O)[O-])c2n1` is 1.02 mM; for `CCCCCCn1nnc2c([N+](=O)[O-])cccc21` it is 1.04 mM. `CCCCCCCn1nnc2c([N+](=O)[O-])cccc21`: the IC50 amounted to 0.95 mM.

Turning to `CCCCCCCn1nc2cccc([N+](=O)[O-])c2n1`, the concentration for half-maximal inhibition (IC50) turned out to be 0.93 mM. Next, `CCCCCCCCn1nnc2c([N+](=O)[O-])cccc21`: 0.94 mM. The figure for `O=[N+]([O-])c1cccc2c1nnn2CCCCl` is 0.91 mM; for `O=[N+]([O-])c1cccc2nn(CCCCl)nc12` it is 1.26 mM.

As for `O=[N+]([O-])c1cccc2nn(Cc3ccccc3)nc12`, the IC50 worked out at 0.82 mM. Next, `Cc1ccc(S(=O)(=O)n2nnc3c([N+](=O)[O-])cccc32)cc1`: 0.86 mM; `CCn1nnc2c([N+](=O)[O-])cccc21`: 1.5 mM. As to `CCCCn1nc2cccc([N+](=O)[O-])c2n1`, the IC50 was determined as 1.07 mM. The figure for `CCCCCCn1nc2cccc([N+](=O)[O-])c2n1` is 0.94 mM.

Regarding `CCCCCCCCn1nc2cccc([N+](=O)[O-])c2n1`, the IC50 turned out to be 0.92 mM. Take `O=C(c1ccccc1)n1nnc2c([N+](=O)[O-])cccc21`: the IC50 turned out to be 0.65 mM. Next, `CCCSc1nc(N[C@@H]2C[C@H]2c2ccc(F)c(F)c2)c2nnn([C@@H]3C[C@H](OCCO)[C@@H](O)[C@H]3O)c2n1` [AR-C126532XX]: 0.00032 mM; `c1ccc2[nH]nnc2c1` [CHEBI:75331]: 7.43 mM.

The record behind these values is BindingDB's records for doi:10.1016/j.bmc.2017.07.045 (Punjabi University, 2017).
